Laboratory results published in the NIST ThermoML archive (doi:10.1007/s10765-009-0593-3).

Assay: xn = mol fraction of the nth substance listed
Details: 101 kPa, Liquid; for speed of sound: Pulse-echo method

CCCOCC(C)OCC(C)O (stereo not given) [1-(1-methyl-2-propoxyethoxy)-2-propanol] + CCCCNCCCC
Details | mass density, 298.15 K [kg/m3] | mass density, 303.15 K [kg/m3] | mass density, 308.15 K [kg/m3] | speed of sound, 303.15 K [m/s] | speed of sound, 308.15 K [m/s]
x1 = 0.123 | 783.999 | 779.716 | 775.539 | 1232.1 | 1212.2
x1 = 0.1582 | 790.406 | 786.126 | 781.949 | 1233.9 | 1214
x1 = 0.1913 | 796.281 | 791.94 | 787.756 | 1235.5 | 1215.5
x1 = 0.2541 | 807.16 | 802.761 | 798.492 | 1238.1 | 1218.1
x1 = 0.3195 | 818.293 | 813.903 | 809.461 | 1240.4 | 1220.4
x1 = 0.3623 | 825.41 | 821.074 | 816.52 | 1241.7 | 1221.7
x1 = 0.4155 | 834.053 | 829.782 | 825.107 | 1243 | 1223.1
x1 = 0.4543 | 840.151 | 835.948 | 831.19 | 1243.9 | 1223.9
x1 = 0.4974 | 846.721 | 842.533 | 837.752 | 1244.7 | 1224.7
x1 = 0.5491 | 854.308 | 850.092 | 845.325 | 1245.6 | 1225.6
x1 = 0.6027 | 861.902 | 857.606 | 852.894 | 1246.4 | 1226.4
x1 = 0.6687 | 871.011 | 866.586 | 861.99 | 1247.1 | 1227.2
x1 = 0.6962 | 874.806 | 870.321 | 865.762 | 1247.4 | 1227.5
x1 = 0.7504 | 882.325 | 877.785 | 873.301 | 1248 | 1228
x1 = 0.7997 | 889.311 | 884.771 | 880.284 | 1248.4 | 1228.5
x1 = 0.8657 | 898.805 | 894.377 | 889.838 | 1249 | 1229.1
x1 = 0.8963 | 903.128 | 898.789 | 894.205 | 1249.3 | 1229.4
x1 = 0.9589 | 911.3 | 907.024 | 902.428 | 1250 | 1230
